Toxic doses and inconclusive results are not listed.
Tested on: L1210 leukemia ip in BDF1 mice, survival T/C
Assay: NCI In Vivo Anticancer Drug Screen. Data for tumor model L1210 Leukemia (intraperitoneal) in B6D2F1 (BDF1) mice
Conditions: higher = longer survival
Method in brief: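 Survival endpoint. Drug-treated group vs vehicle group, expressed as T divided by C. Tumor passaged by transplantation.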

[1] = endpoint: mean survival time, dose: 100.0 mg/kg/injection, schedule: Q01DX001 (ip), vehicle: other
[2] = endpoint: mean survival time, dose: 200.0 mg/kg/injection, schedule: Q01DX001 (ip), vehicle: other
[3] = endpoint: mean survival time, dose: 400.0 mg/kg/injection, schedule: Q01DX001 (ip), vehicle: other
[4] = endpoint: mean survival time, dose: 100.0 mg/kg/injection, schedule: Q01DX009 (ip), vehicle: saline with Tween-80
[5] = endpoint: mean survival time, dose: 200.0 mg/kg/injection, schedule: Q01DX009 (ip), vehicle: saline with Tween-80
[6] = endpoint: mean survival time, dose: 400.0 mg/kg/injection, schedule: Q01DX009 (ip), vehicle: saline with Tween-80
[7] = endpoint: mean survival time, dose: 100.0 mg/kg/injection, schedule: Q01DX001 (ip), vehicle: saline
[8] = endpoint: mean survival time, dose: 200.0 mg/kg/injection, schedule: Q01DX001 (ip), vehicle: saline
[9] = endpoint: mean survival time, dose: 400.0 mg/kg/injection, schedule: Q01DX001 (ip), vehicle: saline
[10] = endpoint: mean survival time, dose: 100.0 mg/kg/injection, schedule: Q01DX001 (ip), vehicle: carboxymethylcellulose (CMC)
[11] = endpoint: mean survival time, dose: 2.5 mg/kg/injection, schedule: Q01DX009 (ip), vehicle: saline
[12] = endpoint: mean survival time, dose: 100.0 mg/kg/injection, schedule: Q01DX009 (ip), vehicle: Klucel (hydroxypropylcellulose) (HPC)
[13] = endpoint: mean survival time, dose: 100.0 mg/kg/injection, schedule: Q04DX003 (ip), vehicle: Klucel (hydroxypropylcellulose) (HPC)
[14] = endpoint: mean survival time, dose: 200.0 mg/kg/injection, schedule: Q01DX009 (ip), vehicle: Klucel (hydroxypropylcellulose) (HPC)
[15] = endpoint: mean survival time, dose: 200.0 mg/kg/injection, schedule: Q04DX003 (ip), vehicle: Klucel (hydroxypropylcellulose) (HPC)
[16] = endpoint: mean survival time, dose: 400.0 mg/kg/injection, schedule: Q01DX009 (ip), vehicle: Klucel (hydroxypropylcellulose) (HPC)
[17] = endpoint: mean survival time, dose: 400.0 mg/kg/injection, schedule: Q04DX003 (ip), vehicle: Klucel (hydroxypropylcellulose) (HPC)
[18] = endpoint: mean survival time, dose: 100.0 mg/kg/injection, schedule: Q04DX002 (ip), vehicle: Klucel (hydroxypropylcellulose) (HPC)

O=C(O)Cc1csc2ccccc12
T/C [1]: 100 % of control | T/C [2]: 97 % of control | T/C [3]: 103 % of control

O=c1[nH]c2cnccc2c(=O)n1O
T/C [4]: 102 % of control | T/C [5]: 93 % of control | T/C [6]: 104 % of control

O=C(CC(c1ccccc1)N1CCCCC1)c1ccccc1 (configuration not stated)
T/C (endpoint: mean survival time, dose: 50.0 mg/kg/injection, schedule: Q01DX001 (ip), vehicle: saline): 97 % of control | T/C [7]: 100 % of control | T/C [8]: 94 % of control | T/C [9]: 97 % of control

C[N+](C)(C)Cc1c(C(O)(c2ccccc2)c2ccccc2)ccc2ccccc12
T/C (endpoint: mean survival time, dose: 50.0 mg/kg/injection, schedule: Q01DX001 (ip), vehicle: carboxymethylcellulose (CMC)): 94 % of control | T/C [10]: 96 % of control

Cc1cc(Cc2cc(C)c(N)cc2N)c(N)cc1N
T/C [7]: 88 % of control | T/C [8]: 93 % of control | T/C [9]: 90 % of control

c1ccc2c(c1)ccc1c[n+]3c4ccccc4ccc3n12
T/C (endpoint: mean survival time, dose: 0.62 mg/kg/injection, schedule: Q01DX009 (ip), vehicle: saline): 105 % of control | T/C (endpoint: mean survival time, dose: 1.25 mg/kg/injection, schedule: Q01DX009 (ip), vehicle: saline): 113 % of control | T/C [11]: 123 % of control | T/C (endpoint: mean survival time, dose: 5.0 mg/kg/injection, schedule: Q04DX003 (ip), vehicle: saline): 106 % of control | T/C (endpoint: mean survival time, dose: 10.0 mg/kg/injection, schedule: Q01DX001 (ip), vehicle: saline): 109 % of control | T/C (endpoint: mean survival time, dose: 20.0 mg/kg/injection, schedule: Q01DX001 (ip), vehicle: saline): 105 % of control

CCOC(=O)n1c(=O)[nH]c2ccccc21
T/C (endpoint: mean survival time, dose: 87.5 mg/kg/injection, schedule: Q04DX003 (ip), vehicle: carboxymethylcellulose (CMC)): 97 % of control | T/C (endpoint: mean survival time, dose: 175.0 mg/kg/injection, schedule: Q04DX003 (ip), vehicle: carboxymethylcellulose (CMC)): 91 % of control | T/C (endpoint: mean survival time, dose: 350.0 mg/kg/injection, schedule: Q04DX003 (ip), vehicle: carboxymethylcellulose (CMC)): 101 % of control

ClC(c1ccccc1)C1(Cl)C=c2ccccc2=C1 (configuration not stated)
T/C [12]: 98 % of control | T/C [13]: 102 % of control | T/C [14]: 98 % of control | T/C [15]: 92 % of control | T/C [16]: 95 % of control | T/C [17]: 96 % of control

c1ccc2c(OCC3CO3)cccc2c1 (configuration not stated)
T/C (endpoint: mean survival time, dose: 50.0 mg/kg/injection, schedule: Q01DX001 (ip), vehicle: other): 94 % of control | T/C [1]: 94 % of control | T/C [2]: 94 % of control | T/C [3]: 111 % of control

Cc1ccc(Oc2ccc([N+](=O)[O-])cc2[N+](=O)[O-])cc1C
T/C (endpoint: mean survival time, dose: 222.0 mg/kg/injection, schedule: Q01DX Z (ip), vehicle: methylcellulose (MC)): 90 % of control | T/C (endpoint: mean survival time, dose: 333.0 mg/kg/injection, schedule: Q01DX Z (ip), vehicle: methylcellulose (MC)): 92 % of control | T/C (endpoint: mean survival time, dose: 500.0 mg/kg/injection, schedule: Q01DX Z (ip), vehicle: methylcellulose (MC)): 92 % of control

COc1ccc(C(=O)/C=C/c2ccc3c(c2)OCO3)cc1OC
T/C [12]: 87 % of control | T/C [13]: 98 % of control | T/C [14]: 90 % of control | T/C [15]: 98 % of control | T/C [16]: 90 % of control | T/C [17]: 96 % of control

Cc1cc2c3ccccc3ncn2n1
T/C [13]: 101 % of control | T/C [15]: 103 % of control | T/C [17]: 109 % of control

Cc1c2cc3c(cc2cc2c4cc5c(cc4cc[n+]12)OCO5)OCO3 (tested in a mixture with another compound)
T/C (endpoint: mean survival time, dose: 5.5 mg/kg/injection, schedule: Q04DX003 (ip), vehicle: saline): 110 % of control | T/C (endpoint: mean survival time, dose: 6.25 mg/kg/injection, schedule: Q01DX009 (ip), vehicle: saline): 110 % of control | T/C (endpoint: mean survival time, dose: 8.3 mg/kg/injection, schedule: Q04DX003 (ip), vehicle: saline): 108 % of control | T/C (endpoint: mean survival time, dose: 12.5 mg/kg/injection, schedule: Q01DX009 (ip), vehicle: saline): 89 % of control | T/C (endpoint: mean survival time, dose: 12.5 mg/kg/injection, schedule: Q04DX003 (ip), vehicle: saline): 98 % of control | T/C (endpoint: mean survival time, dose: 18.7 mg/kg/injection, schedule: Q04DX003 (ip), vehicle: saline): 93 % of control

CCNC(=O)NCCN1CCOCC1
T/C (endpoint: mean survival time, dose: 100.0 mg/kg/injection, schedule: Q01DX009 (ip), vehicle: saline): 95 % of control | T/C (endpoint: mean survival time, dose: 200.0 mg/kg/injection, schedule: Q01DX009 (ip), vehicle: saline): 98 % of control | T/C (endpoint: mean survival time, dose: 400.0 mg/kg/injection, schedule: Q01DX009 (ip), vehicle: saline): 104 % of control

CSc1ccc(Sc2cccc3c2C(=O)c2c(cccc2Sc2ccc(SC)cc2)C3)cc1
T/C [4]: 90 % of control | T/C [5]: 92 % of control | T/C [6]: 103 % of control

O=C(Nc1cccc2ccccc12)OCCCl
T/C [10]: 93 % of control | T/C (endpoint: mean survival time, dose: 200.0 mg/kg/injection, schedule: Q01DX001 (ip), vehicle: carboxymethylcellulose (CMC)): 90 % of control | T/C (endpoint: mean survival time, dose: 400.0 mg/kg/injection, schedule: Q01DX001 (ip), vehicle: carboxymethylcellulose (CMC)): 95 % of control

c1ccn2cncc2c1
T/C (endpoint: mean survival time, dose: 75.0 mg/kg/injection, schedule: Q01DX001 (ip), vehicle: saline): 95 % of control | T/C (endpoint: mean survival time, dose: 150.0 mg/kg/injection, schedule: Q01DX001 (ip), vehicle: saline): 106 % of control | T/C (endpoint: mean survival time, dose: 300.0 mg/kg/injection, schedule: Q01DX001 (ip), vehicle: saline): 102 % of control

Nc1nc(N)c2nc(CNc3ccc(CC(=O)NC(CC(=O)O)C(=O)O)cc3)cnc2n1 (configuration not stated)
T/C (endpoint: mean survival time, dose: 25.0 mg/kg/injection, schedule: Q01DX009 (ip), vehicle: sodium bicarbonate): 104 % of control | T/C (endpoint: mean survival time, dose: 50.0 mg/kg/injection, schedule: Q01DX009 (ip), vehicle: sodium bicarbonate): 106 % of control | T/C (endpoint: mean survival time, dose: 100.0 mg/kg/injection, schedule: Q01DX009 (ip), vehicle: sodium bicarbonate): 108 % of control

O=[N+]([O-])/C=C\c1cc(Cl)c(/C=C/[N+](=O)[O-])c(Cl)c1Cl
T/C [11]: 88 % of control | T/C (endpoint: mean survival time, dose: 10.0 mg/kg/injection, schedule: Q01DX001 (ip), vehicle: acetone): 89 % of control | T/C (endpoint: mean survival time, dose: 10.0 mg/kg/injection, schedule: Q04DX003 (ip), vehicle: acetone): 91 % of control | T/C (endpoint: mean survival time, dose: 20.0 mg/kg/injection, schedule: Q01DX001 (ip), vehicle: acetone): 94 % of control | T/C (endpoint: mean survival time, dose: 20.0 mg/kg/injection, schedule: Q04DX003 (ip), vehicle: acetone): 101 % of control

Nc1ccn(C2OC(COP(=O)(O)O)C(O)C2O)c(=O)n1 (configuration not stated)
T/C (endpoint: mean survival time, dose: 2.5 mg/kg/injection, schedule: Q01DX009 (ip), vehicle: other): 108 % of control | T/C (endpoint: mean survival time, dose: 5.0 mg/kg/injection, schedule: Q01DX009 (ip), vehicle: other): 96 % of control | T/C (endpoint: mean survival time, dose: 10.0 mg/kg/injection, schedule: Q01DX009 (ip), vehicle: other): 116 % of control | T/C (endpoint: mean survival time, dose: 18.0 mg/kg/injection, schedule: Q01DX Z (ip), vehicle: saline): 193 % of control | T/C (endpoint: mean survival time, dose: 26.5 mg/kg/injection, schedule: Q01DX Z (ip), vehicle: saline): 195 % of control | T/C (endpoint: mean survival time, dose: 40.0 mg/kg/injection, schedule: Q01DX Z (ip), vehicle: saline): 218 % of control | T/C (endpoint: mean survival time, dose: 60.0 mg/kg/injection, schedule: Q01DX Z (ip), vehicle: saline): 157 % of control | T/C (endpoint: median survival time, dose: 22.0 mg/kg/injection, schedule: Q01DX009 (ip), vehicle: sodium bicarbonate): 171 % of control | T/C (endpoint: median survival time, dose: 33.0 mg/kg/injection, schedule: Q01DX009 (ip), vehicle: sodium bicarbonate): 177 % of control | T/C (endpoint: median survival time, dose: 46.0 mg/kg/injection, schedule: Q01DX009 (ip), vehicle: sodium bicarbonate): 177 % of control | T/C (endpoint: median survival time, dose: 66.0 mg/kg/injection, schedule: Q01DX009 (ip), vehicle: sodium bicarbonate): 181 % of control

CCCS(=O)(=O)N1CCC(C)CC1
T/C [18]: 102 % of control | T/C (endpoint: mean survival time, dose: 200.0 mg/kg/injection, schedule: Q04DX002 (ip), vehicle: Klucel (hydroxypropylcellulose) (HPC)): 97 % of control | T/C (endpoint: mean survival time, dose: 400.0 mg/kg/injection, schedule: Q04DX002 (ip), vehicle: Klucel (hydroxypropylcellulose) (HPC)): 97 % of control

CCOC(=O)c1ccc(NC(=O)Nc2cc(Cl)c(OC)cc2OC)cc1
T/C [12]: 98 % of control | T/C [14]: 95 % of control | T/C [16]: 105 % of control

COc1cc(Cn2cccc2/C=N/NC(N)=S)cc(OC)c1
T/C (endpoint: mean survival time, dose: 25.0 mg/kg/injection, schedule: Q04DX002 (ip), vehicle: Klucel (hydroxypropylcellulose) (HPC)): 105 % of control | T/C (endpoint: mean survival time, dose: 50.0 mg/kg/injection, schedule: Q04DX002 (ip), vehicle: Klucel (hydroxypropylcellulose) (HPC)): 111 % of control | T/C [18]: 111 % of control
